Test results: US9700499B2, “Antimicrobial compositions” (GIVAUDAN SA, priority 2005, dated 2017)
Entries after “also recorded” stand apart in the source; their conditions may differ.

Key:
Format in all cases: cell-based
[1] = tested on: Aspergillus niger ATCC 16404 spores; experiment: Sporicidal effect of test compounds and preservatives in a cosmetic cream; settings: for Enhancing activity in cream: 0.1% test compound with phenoxyethanol, complete killing of spores within 7 days; for Enhancing effect in the cosmetic cream in presence of phenoxyethanol: 0.2% test compound with phenoxyethanol
Method: A cosmetic cream (pH 5.5) for application to the human skin is formulated as follows (in % w/w): […]
Glyceryl-monostearate, Sweet almond oil, Cetyl-stearyl-alcohol and Glyceryl dilaurate are melted at 80° C. Xanthan gum is dispersed into glycerine. Arginine is dissolved in water and heated to 75° C. The Xanthan gum-glycerin suspension is added to the heated water phase, the heated oil phase is added and the suspension is stirred at 300 rpm for 10 min whilst being cooled down slowly. Finally, a homogeneous emulsion is made with a high speed homogenizer at 5000 rpm.
Test samples of cream contain different amounts of preservatives and/or preservative enhancer. The preservative and preservative enhancer is added to an aliquot of 10 g of the cream in 50 ml tubes to a concentration (w/w) of 0.1-0.5% as shown in the table below. After addition of the preservative/preservative enhancer, the cream is thoroughly mixed to achieve a homogeneous distribution.
After 1-3 days of equilibration of the cream (storage at room temperature to achieve a homogenous partitioning of compounds between oil and water phase), to each sample 100 μl of a spore suspension of Aspergillus niger ATCC 16404 containing 3×10^7 spores/ml (prepared as described in example 1) is added. After regular test intervals, samples of 1 g cream are removed and added to 20 ml of a neutralizer solution containing 0.2% lecithin, 2% Tween 80 and 0.5% NaCl. These dilutions are vigorously shaken for 10 min until the cream is dissolved, and then aliquots of this solution are spread plated on potato dextrose agar containing 0.2% Tween 80. After 48 h to 72 h the number of surviving colony forming units (and therefore surviving spores) are counted.
The sporidical effect in cream (prepared as described in example 2) is compared when using the test compounds alone or in combination with phenoxyethanol, benzyl alcohol or 2-Phenylethanol.
The experiments described in example 2-4 are performed with varying concentrations of test compound and preservative as indicated in Table 5.

[2] = tested on: Aspergillus niger ATCC 16404 spores; experiment: Sporicidal effect of test compounds in water; settings: for Reduction factor / Spores/ml: 0.1% test compound in water; for Reduction factor: after 7 days, count of negative control divided by count of test compound; for Spores/ml: spore count after 7 days; for Sporicidal effect (reduction of spore counts) in water: test compound alone in water at 0.1%
Method: Aspergillus niger ATCC 16404 spores are added to water to obtain a density of 3×10^5 spores/ml. In order to prepare the spores, the test strain is grown for 5 days on potato dextrose agar at room temperature. The spores are harvested with a solution containing 0.1% Tween 80, peptone 0.1% and NaCl 0.85% and the spore concentration is adjusted to the density indicated above.
Test compounds are dissolved in dipropyleneglycol to a concentration of 20%.
These stock solutions are added to 10 ml aliquots of the spore suspension to obtain a final concentration of the test compounds of 0.1%. The sporicidal effect is shown by a reduction of spore counts after 7 days.
The reduction factor is determined as follows. Aliquots of the above prepared suspension of microorganisms (here: spore suspension prepared as described above) are plated on a suitable agar medium (see above) and the developing colonies are counted both for samples with test compound and for a negative probe (water). The count of the negative control is divided by the count of the test compound and thereby the reduction factor is determined. A negative control (water) accordingly has a reduction factor of 1 (no effect on the microorganism).

[3] = tested on: Candida albicans ATCC 10231, Candida guilliermondii ATCC 6260 and Candida parapsilosis ATCC 22019; experiment: Activity against yeasts in cosmetic cream (mixture of three yeast strains 1:1:1)
Method: The same procedure as described above except for the changes mentioned below is performed with a mixture of the three yeast strains Candida albicans ATCC 10231, Candida guilliermondii ATCC 6260 and Candida parapsilosis ATCC 22019 that replace the bacterial strains.
The yeast strains are grown in Sabouraud liquid medium, washed and suspended in saline and adjusted to 5×10^7 cfu (colony forming units) per ml. The Inoculum of the three strains is then pooled in a ratio of 1:1:1. For determining the reduction factor by counting of the colonies formed, the samples inoculated with the yeast strains are spread plated on potato dextrose, incubated until colonies have formed and counted.

[4] = tested on: Staphylococcus aureus (DSMZ 799) and Pseudomonas aeruginosa (ATCC 15442); experiment: Activity against bacteria in cosmetic cream (mixed inoculum 1:1)
Method: As test organisms Staphylococcus aureus (DSMZ 799) and Pseudomonas aeruginosa (ATCC 15442) are used. The strains are grown overnight in Mueller-Hinton broth and adjusted to a cell density of 1×10^8 cfu (colony forming units) per ml.
The two bacterial strains are mixed in a ratio of 1:1 and 100 μl of this mixed inoculum is added to 10 ml aliquots of the cosmetic cream supplemented with test compounds as described in Example 2 in the concentration as indicated in the table below.
The resulting mixtures are incubated at room temperature and at the regular intervals samples are removed, suspended in neutralizer solution and diluted as described above (example 2).
Aliquots of these suspended and diluted samples are plated on tryptic soy agar supplemented with 0.5% Tween 80 and then incubated for 24 h at 37° C. Surviving bacteria are counted.

[5] = 0.1% test compound and 0.5% phenoxyethanol (Table 2)
[6] = 0.1% test compound and 0.5% phenoxyethanol, 7 d (Table 2)
[7] = test compound (0.1% where given) with Phenoxyethanol 0.5% (Table 3)
[8] = test compound (0.1% where given) with Phenoxyethanol 0.5%, 7 d (Table 3)
[9] = test compound alone (0.1% where given), no preservative (Table 3)
[10] = test compound alone (0.1% where given), no preservative, 7 d (Table 3)
[11] = 0.2% test compound and 0.5% phenoxyethanol (Table 2)
[12] = 0.2% test compound and 0.5% phenoxyethanol, 7 d (Table 2)
[13] = test compound 0.1% with 2-Phenylethanol 0.5%
[14] = test compound 0.1% alone, no preservative
[15] = test compound 0.1% with Phenoxyethanol 0.5%

SMILES: COc1cccc(C=O)c1 [3-methoxybenzaldehyde]
- Spores/ml after 7 d [1, 5]: <100 Spores/ml
- Reduction factor [1, 6]: >737

SMILES: OCCc1ccccc1 [2-Phenylethanol, reference compound]
- Spores/ml after 7 d ([1]; preservative 0.5% alone, no test compound (Table 3)): 4.2 × 10^4 Spores/ml
- Reduction factor ([1]; preservative 0.5% alone, no test compound, 7 d (Table 3)): 2.5

SMILES: COc1cc(O)ccc1C=O [4-hydroxy-2-methoxy-benzaldehyde]
- Spores/ml after 7 d [1, 7]: <100 Spores/ml
- Reduction factor [1, 8]: >1040
- Spores/ml after 7 d [1, 9]: 2.08 × 10^4 Spores/ml
- Reduction factor [1, 10]: 5

SMILES: COc1cc(C=O)ccc1O [Vanilline]
- Spores/ml after 7 d [1, 5]: <100 Spores/ml
- Reduction factor [1, 6]: >737
- Spores/ml after 7 d [1, 7]: <100 Spores/ml
- Reduction factor [1, 8]: >1040
- Spores/ml after 7 d [1, 9]: 1 × 10^4 Spores/ml
- Reduction factor [1, 10]: 10.4

SMILES: O=Cc1cc(O)cc(O)c1 [3,5-dihydroxybenzaldehyde]
- Spores/ml after 7 d [1, 7]: <100 Spores/ml
- Reduction factor [1, 8]: >1040
- Spores/ml after 7 d [1, 9]: 1 × 10^4 Spores/ml
- Reduction factor [1, 10]: 10

SMILES: COc1ccc(C=O)cc1 [4-methoxybenzaldehyde]
- Reduction factor [2]: 5
- Spores/ml [2]: 4.68 × 10^4 Spores/ml
- Sporicidal effect (reduction of spore counts) in water [2]: No significant reduction of spore counts
- Sporicidal effect (reduction of spore counts) in water ([2]; listed as 4-methoxy-benzaldehyde): no significant sporicidal effect
- Spores/ml after 7 d [1, 5]: <100 Spores/ml
- Reduction factor [1, 6]: >737
- Enhancing activity in cream [1]: excellent enhancing activity
- Spores/ml after 7 d [1, 11]: <100 Spores/ml
- Reduction factor [1, 12]: >737
- Spores/ml after 7 d [1, 7]: <100 Spores/ml
- Reduction factor [1, 8]: >1040
- Spores/ml after 7 d [1, 9]: 2.8 × 10^3 Spores/ml
- Reduction factor [1, 10]: 37.1

SMILES: C=CCCCCCCCCO [9-decen-1-ol, reference compound]
- Reduction factor [2]: 23
- Spores/ml [2]: 1.1 × 10^4 Spores/ml
- Sporicidal effect (reduction of spore counts) in water [2]: significant sporicidal effect
- Spores/ml after 7 d [1, 11]: 2.44 × 10^4 Spores/ml
- Reduction factor [1, 12]: 2.1
- Enhancing effect in the cosmetic cream in presence of phenoxyethanol [1]: do not show an enhancing effect

SMILES: O=Cc1cccc(O)c1 [3-hydroxybenzaldehyde]
- Spores/ml after 7 d [1, 5]: <100 Spores/ml
- Reduction factor [1, 6]: >737

SMILES: O=Cc1ccc(O)cc1 [4-hydroxybenzaldehyde]
- Reduction factor [2]: <2
- Spores/ml [2]: >1.2 × 10^5 Spores/ml
- Sporicidal effect (reduction of spore counts) in water [2]: no significant sporicidal effect; also recorded: No significant reduction of spore counts
- Spores/ml after 7 d [1, 5]: <100 Spores/ml
- Reduction factor [1, 6]: >737
- Enhancing activity in cream [1]: excellent enhancing activity
- Reduction factor A. niger, 7 d ([1]; test compound 0.05% w/w with preservative (phenoxyethanol) 0.5% w/w (Table 5)): 66
- Reduction factor A. niger, 7 d ([1]; test compound 0.1% w/w with preservative (phenoxyethanol) 0.3% w/w (Table 5)): 295
- Reduction factor A. niger, 7 d ([1]; test compound 0.1% w/w with preservative (phenoxyethanol) 0.5% w/w (Table 5)): >1180
- Reduction factor A. niger, 7 d ([1]; test compound 0.1% w/w, preservative 0 (Table 5)): 2
- Spores/ml after 7 d ([1]; test compound 0.1% with 2-Phenylethanol 0.25% + benzylalcohol 0.25%): <100 Spores/ml
- Reduction factor ([1]; test compound 0.1% with 2-Phenylethanol 0.25% + benzylalcohol 0.25%, 7 d): >1040
- Spores/ml after 7 d [1, 13]: <100 Spores/ml
- Spores/ml after 7 d ([1]; test compound 0.1% with 2-Phenylethanol 0.5% + benzylalcohol 0.5%): <100 Spores/ml
- Reduction factor ([1]; test compound 0.1% with 2-Phenylethanol 0.5% + benzylalcohol 0.5%, 7 d): >1040
- Reduction factor ([1]; test compound 0.1% with 2-Phenylethanol 0.5%, 7 d): >1040
- Spores/ml after 7 d [1, 7]: <100 Spores/ml
- Reduction factor [1, 8]: >1040
- Spores/ml after 7 d [1, 9]: 1.0 × 10^5 Spores/ml
- Reduction factor [1, 10]: 1.04
- Enhancing effect of the test compound in presence of the preservative compound (phenoxyethanol) ([1]; varying concentrations (Table 5)): enhancing effect
- Yeasts (cfu/g cream) 48 h [3, 14]: 7.4 × 10^3 cfu/g cream
- Yeasts (cfu/g cream) 7 d [3, 14]: 2.2 × 10^5 cfu/g cream
- Yeasts (cfu/g cream) 48 h [3, 13]: <200 cfu/g cream
- Yeasts (cfu/g cream) 7 d [3, 13]: <200 cfu/g cream
- Yeasts (cfu/g cream) 48 h [3, 15]: <200 cfu/g cream
- Yeasts (cfu/g cream) 7 d [3, 15]: <200 cfu/g cream
- Bacteria (cfu/g cream) 24 h [4, 14]: 3.8 × 10^3 cfu/g cream
- Bacteria (cfu/g cream) 7 d [4, 14]: 1.28 × 10^4 cfu/g cream
- Bacteria (cfu/g cream) 24 h [4, 13]: 1 × 10^3 cfu/g cream
- Bacteria (cfu/g cream) 7 d [4, 13]: <200 cfu/g cream
- Bacteria (cfu/g cream) 24 h [4, 15]: 1.9 × 10^4 cfu/g cream
- Bacteria (cfu/g cream) 7 d [4, 15]: <200 cfu/g cream

SMILES: O=Cc1ccc2c(c1)OCO2 [Heliotropine]
- Spores/ml after 7 d [1, 5]: <100 Spores/ml
- Reduction factor [1, 6]: >737

SMILES: O=Cc1ccccc1 [Benzaldehyde, reference compound]
- Spores/ml after 7 d [1, 5]: <100 Spores/ml
- Reduction factor [1, 6]: >737

SMILES: CC(C)c1ccc(CO)cc1 [Cuminic alcohol, reference compound]
- Reduction factor [2]: <2
- Spores/ml [2]: >1.2 × 10^5 Spores/ml

SMILES: Cc1ccc(C=O)cc1 [4-methylbenzaldehyde]
- Spores/ml after 7 d [1, 5]: <100 Spores/ml
- Reduction factor [1, 6]: >737

SMILES: CC(CC=O)CCc1ccccc1 (centres unmarked) [Mefranal, 3-methyl-5-phenylpentanal, reference compound]
- Reduction factor [2]: 63
- Spores/ml [2]: 4 × 10^3 Spores/ml
- Sporicidal effect (reduction of spore counts) in water [2]: significant sporicidal effect
- Spores/ml after 7 d [1, 11]: 3.12 × 10^4 Spores/ml
- Reduction factor [1, 12]: 1.6
- Enhancing effect in the cosmetic cream in presence of phenoxyethanol [1]: do not show an enhancing effect
